The assay deals with Broad 7084-01 inhibitor HTS, set 2. The assay can be described thus: single-concentration hits, screen 7084 set 2 (AID 977613).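 Note: host cells are infected with parasite promastigotes that become internalized.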

Calls of active or inactive are those of the source. The rule behind the calls is not given here.

On to `CCCNC(=O)[C@@H]1[C@@H](CO)[C@@H]2Cn3c(cccc3=O)[C@@H]2N1C`, for which the active concentration is > 10 µM (inactive).

For the compound `Cc1cccc(S(=O)(=O)N2CC[C@@H]3[C@H](CO)Nc4ccc(C#Cc5ccccc5F)cc4[C@@H]32)c1`, the active concentration is > 10 µM (inactive).

For `O=C(C1CCOCC1)N1C[C@H]2[C@@H](c3ccccc31)[C@H](CO)N2C(=O)Cc1ccccc1`, the active concentration was > 10 µM (inactive).

Take `O=C(C1CCCCC1)N1CC2(C1)[C@H](c1ccccc1)[C@@H](CO)N2C(=O)c1cccnc1`: the active concentration is > 10 µM (inactive).

Regarding `O=C(C[C@H]1CC[C@@H]2[C@H](COC[C@H](O)CN2Cc2cc(F)ccc2F)O1)NCc1ccc(F)cc1`, the active concentration is > 10 µM (inactive).

Consider `CN(C)C(=O)C[C@H]1CC[C@H]2[C@@H](COC[C@H](O)CN2CC2CC2)O1`, for which the active concentration is > 10 µM (inactive).

On to `COCC(=O)N1[C@H](C#N)[C@H](c2ccccc2-c2ccc(C)cc2)[C@@H]1CO`, for which the active concentration was > 10 µM (inactive).

On to `CCCC#Cc1ccc([C@@H]2[C@H]3CN(C(=O)c4cccnc4)CC(=O)N3[C@H]2CO)cc1`, for which the active concentration is > 10 µM (inactive).

Regarding `OC[C@H]1[C@@H](c2ccc(-c3ccccc3F)cc2)[C@H]2CN(Cc3cncnc3)CCCCN21`, the active concentration is > 10 µM (inactive).

Regarding `Cc1ccc(-c2ccccc2[C@H]2[C@@H](C#N)N(c3ncc(-c4ccccc4)s3)[C@@H]2CO)cc1`, the active concentration was > 10 µM (inactive).

For the compound `Cc1ccc(CN2CC(=O)N3[C@H](CO)[C@@H](c4ccc(-c5ccccc5F)cc4)[C@H]3C2)cc1`, the active concentration was > 10 µM (inactive).

As for `COc1cccc(-c2ccc3c(c2)[C@H]2[C@H](CCN2S(=O)(=O)c2cn(C)cn2)[C@H](CO)N3)c1`, the active concentration is > 10 µM (inactive).

Regarding `O=C(c1ccccc1)N1CC(=O)N2[C@H](CO)[C@H](c3ccc(-c4ccccc4)cc3)[C@@H]2C1`, the active concentration is > 10 µM (inactive).

Turning to `CC(=O)N1CC[C@@H]2[C@@H](CO)Nc3ccc(C#Cc4cccnc4)cc3[C@@H]21`, the active concentration is > 10 µM (inactive).

`O=C(c1ccncc1)N1C[C@@H]2[C@H](c3ccccc31)[C@H](CO)N2Cc1ccccc1F`: the active concentration is > 10 µM (inactive).

Regarding `N#C[C@@H]1[C@H](c2ccccc2C2=CCCCC2)[C@H](CO)N1S(=O)(=O)c1cccc(F)c1`, the active concentration is > 10 µM (inactive).

Consider `C/C=C/c1ccc([C@@H]2[C@H](CO)N(CC3CC3)C23CN(C(=O)c2ccc4c(c2)OCO4)C3)cc1`, for which the active concentration is > 10 µM (inactive).

`CN(C)C(=O)C[C@@H]1CC[C@H]2[C@H](COc3ccc(NC(=O)c4ccc(F)cc4)cc3C(=O)N2C)O1`: the active concentration is > 10 µM (inactive).

`COc1ccc2c3c([nH]c2c1)[C@@H](CO)N(S(=O)(=O)c1ccc(C)cc1)CC31CCN(C(=O)Cc2cccnc2)CC1`: the active concentration was > 10 µM (inactive).

Regarding `O=C(CN1CCOCC1)N1CCCCN2[C@H](CO)[C@@H](c3ccc(Br)cc3)[C@@H]2C1`, the active concentration was > 10 µM (inactive).

With `O=C1CNC[C@@H]2[C@@H](c3ccc(-c4ccccc4F)cc3)[C@@H](CO)N12`, the active concentration was > 10 µM (inactive).

As to `CC(C)NC(=O)N1CC2(C1)[C@H](c1ccccc1)[C@@H](CO)N2C(=O)C1CCCC1`, the active concentration was > 10 µM (inactive).

For `N#Cc1cccc(-c2ccc3c(c2)[C@H]2[C@H](CCN2S(=O)(=O)c2ccc(F)cc2)[C@@H](CO)N3)c1`, the active concentration was > 10 µM (inactive).

As to `OC[C@@H]1[C@@H]2c3ccccc3NC[C@@H]2N1Cc1ccccc1Cl`, the active concentration was > 10 µM (inactive).

Take `O=C(NC1CCCC1)N1CCCCN2[C@H](CO)[C@H](c3ccc(-c4cccnc4)cc3)[C@H]2C1`: the active concentration was > 10 µM (inactive).

Consider `CC(C)(O)C#Cc1ccc([C@H]2[C@H](CO)N3CCCCN(S(C)(=O)=O)C[C@@H]23)cc1`, for which the active concentration was > 10 µM (inactive).

In the case of `CN(C)CC(=O)N1[C@H](C#N)[C@@H](c2ccccc2-c2ccccc2F)[C@H]1CO`, the active concentration was > 10 µM (inactive).

`CCCC#Cc1ccc([C@@H]2[C@@H](CO)N3C(=O)CN(S(=O)(=O)c4ccccc4C)C[C@H]23)cc1`: the active concentration is > 10 µM (inactive).

As to `Cc1ccccc1-c1ccc([C@H]2[C@H](CO)N3C(=O)CN(S(C)(=O)=O)C[C@@H]23)cc1`, the active concentration was > 10 µM (inactive).

`CCCNC(=O)N1[C@@H](CO)[C@H](c2ccccc2)C12CN(C(=O)C1CCCCC1)C2`: the active concentration is > 10 µM (inactive).

`O=S(=O)(c1ccc(F)cc1)N1C[C@@H]2[C@H](c3ccccc31)[C@H](CO)N2Cc1ccc2c(c1)OCO2`: the active concentration is > 10 µM (inactive).

Consider `CN(C)CC(=O)N1CCCCN2[C@H](C1)[C@@H](c1ccc(/C=C/c3ccccc3)cc1)[C@@H]2CO`, for which the active concentration is > 10 µM (inactive).

Turning to `O=C(C[C@H]1CC[C@H]2[C@@H](COC[C@@H](O)CN2Cc2cccc(C(F)(F)F)c2)O1)NCc1ccccc1`, the active concentration was > 10 µM (inactive).

Consider `COCC(=O)N1[C@H](C#N)[C@H](c2ccccc2-c2ccccc2F)[C@H]1CO`, for which the active concentration was > 10 µM (inactive).

As for `COC(=O)[C@H]1[C@H](CO)[C@H]2Cn3c(ccc(C4=CCCCC4)c3=O)[C@H]2N1Cc1ccc2c(c1)OCO2`, the active concentration is > 10 µM (inactive).

As to `COc1ccc(NC(=O)N2CCCCN3[C@H](C2)[C@H](c2ccc(-c4ccccc4F)cc2)[C@@H]3CO)cc1`, the active concentration was > 10 µM (inactive).

As for `COC(=O)[C@H]1[C@H](CO)[C@H]2Cn3c(ccc(-c4ccccc4F)c3=O)[C@@H]1N2`, the active concentration was > 10 µM (inactive).

Turning to `Cn1cnc(S(=O)(=O)N2C[C@@H](O)COC[C@H]3O[C@@H](CC(=O)NC4CCCC4)CC[C@@H]32)c1`, the active concentration is > 10 µM (inactive).

In the case of `CN(C)C(=O)c1cccc(-c2ccc([C@H]3[C@H](CO)N4CCCCN(CC5CCOCC5)C[C@@H]34)cc2)c1`, the active concentration is > 10 µM (inactive).

As for `O=C(Nc1ccccc1)N1CC(=O)N2[C@H](C1)[C@@H](c1ccc(C#CC3CCCCC3)cc1)[C@@H]2CO`, the active concentration is > 10 µM (inactive).

In the case of `CN(C)C(=O)C[C@@H]1CC[C@@H]2[C@H](COC[C@H](O)CN2CC2CCCC2)O1`, the active concentration was > 10 µM (inactive).

With `O=C(Nc1ccccc1F)N1CC(=O)N2[C@@H](CO)[C@H](c3ccc(-c4cccnc4)cc3)[C@@H]2C1`, the active concentration is > 10 µM (inactive).

With `Cc1nn(C)cc1NC(=O)C[C@@H]1CC[C@H]2[C@H](COc3ccc(NC(=O)C4CCOCC4)cc3C(=O)N2C)O1`, the active concentration was > 10 µM (inactive).

For the compound `O=C(Nc1ccc(F)cc1)N1[C@@H](CO)[C@@H]2c3ccccc3NC[C@@H]21`, the active concentration was > 10 µM (inactive).

With `C[C@@H](NC(=O)[C@@H]1[C@@H](CO)[C@@H]2Cn3c(ccc(-c4ccncc4)c3=O)[C@@H]2N1C)c1ccccc1`, the active concentration is > 10 µM (inactive).

Consider `CN1C(=O)c2cc(NC(=O)Cc3cccs3)ccc2OC[C@@H]2O[C@@H](CC(=O)N[C@@H]3CCN(Cc4ccccc4)C3)CC[C@H]21`, for which the active concentration was > 10 µM (inactive).

`O=C([C@@H]1[C@@H](CO)[C@@H]2Cn3c(cccc3=O)[C@H]1N2CC1CC1)N1CCc2ccccc2C1`: the active concentration is > 10 µM (inactive).

For `N#C[C@H]1[C@H](c2ccccc2C2=CCCCC2)[C@H](CO)N1C(=O)c1cccc(F)c1`, the active concentration was > 10 µM (inactive).

Consider `COCCNC(=O)[C@H]1[C@H](CO)[C@H]2Cn3c(ccc(-c4cccc(F)c4)c3=O)[C@@H]1N2C(=O)NC(C)C`, for which the active concentration is > 10 µM (inactive).

Regarding `O=C(C[C@@H]1CC[C@H]2[C@@H](COC[C@@H](O)CN2C(=O)Nc2ccc(C(F)(F)F)cc2)O1)NCC1CC1`, the active concentration is > 10 µM (inactive).

Turning to `O=C(c1ccccn1)N1CC[C@@H]2[C@H](CO)Nc3ccc(Br)cc3[C@@H]21`, the active concentration is > 10 µM (inactive).

On to `CN(C)C(=O)c1cccc(-c2ccc([C@H]3[C@H]4CN(CC5CCOCC5)CCCCN4[C@H]3CO)cc2)c1`, for which the active concentration was > 10 µM (inactive).

As for `OC[C@@H]1[C@@H]2c3ccccc3NC[C@@H]2N1CC1CCOCC1`, the active concentration was > 10 µM (inactive).

Regarding `CS(=O)(=O)N1C[C@H](O)COC[C@@H]2O[C@@H](CC(=O)NCc3ccc(-c4ccccc4)cc3)CC[C@H]21`, the active concentration was > 10 µM (inactive).

Consider `CN(C)CC(=O)N1C[C@@H]2[C@H](c3ccccc31)[C@H](CO)N2Cc1cc(F)ccc1F`, for which the active concentration is > 10 µM (inactive).

Take `O=C(C1CCOCC1)N1CC(=O)N2[C@H](CO)[C@H](c3ccc(C#CCc4ccccc4)cc3)[C@@H]2C1`: the active concentration is > 10 µM (inactive).

`O=C(NCCCN1CCOCC1)[C@@H]1[C@@H](CO)[C@@H]2Cn3c(ccc(C4=CCCCC4)c3=O)[C@H]1N2`: the active concentration is > 10 µM (inactive).

Consider `N#C[C@@H]1[C@@H](c2ccccc2C2=CCCCC2)[C@@H](CO)N1C(=O)c1cccc(F)c1`, for which the active concentration was > 10 µM (inactive).

Regarding `COc1ccc2c3c(n(C)c2c1)[C@@H](CO)N(C(=O)Cc1ccccc1)CC31CN(C)C1`, the active concentration is > 10 µM (inactive).

With `CC(C)NC(=O)Nc1ccc2c(c1)C(=O)N(C)[C@@H]1CC[C@H](CC(=O)NCc3ccc(F)cc3)O[C@@H]1CO2`, the active concentration was > 10 µM (inactive).

Regarding `COCC(=O)N1CC[C@H]2[C@@H]1c1cc(-c3ccc(F)cc3)ccc1N(C)[C@H]2CO`, the active concentration is > 10 µM (inactive).

As for `O=C(c1ccncc1)N1C[C@H]2[C@@H](c3ccccc31)[C@@H](CO)N2Cc1ccccc1F`, the active concentration was > 10 µM (inactive).

Turning to `COc1ccc(-c2ccc([C@@H]3[C@H]4CN(C(=O)Cc5ccncc5)CCCCN4[C@H]3CO)cc2)cc1`, the active concentration is > 10 µM (inactive).

For `O=C(Cc1ccncc1)N1CC[C@@H]2[C@H](CO)Nc3ccc(-c4ccccc4F)cc3[C@@H]21`, the active concentration was > 10 µM (inactive).

Take `CN1c2ccc(Br)cc2[C@@H]2[C@@H](CCN2S(=O)(=O)c2cccc(F)c2)[C@@H]1CO`: the active concentration was > 10 µM (inactive).

Source of the values: PubChem BioAssay AID977613 (Broad Institute, 2014).
